Legend:
Assay type in all cases: in vivo
[1] = system: morningglory (Ipomoea spp.); experiment: Test A preemergence, morningglory; conditions: 0 to 100 scale (0 no effect, 100 complete control)
How it was run: (§1)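 Visual injury rating, 0 = no effect to 100 = complete control, made roughly ten days after treatment by comparison with untreated controls. Preemergence: directed soil spray onto freshly planted loam/sand. Postemergence: foliar application at one- to two-leaf stage, 2–10 cm height.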

[2] = system: umbrella sedge (Cyperus difformis); experiment: Test B flooded paddy test, umbrella sedge; conditions: Flood, scale 0 to 100
How it was run: (§2)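 2-leaf plants; pots flooded 3 cm above soil; compound added to paddy water; depth maintained. Greenhouse 13–15 d. Visual rating vs controls, 0 (no effect) to 100 (complete control); dash = no result.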

[3] = system: pigweed (Amaranthus retroflexus); experiment: Test A postemergence, pigweed; conditions: 0 to 100 scale (0 no effect, 100 complete control)
How it was run: as §1

[4] = system: morningglory (Ipomoea spp.); experiment: Test A postemergence, morningglory; conditions: 0 to 100 scale (0 no effect, 100 complete control)
How it was run: as §1

[5] = system: wheat (Triticum aestivum); experiment: Test A preemergence, wheat; conditions: 0 to 100 scale (0 no effect, 100 complete control)
How it was run: as §1

[6] = system: large crabgrass (Digitaria sanguinalis); experiment: Test A postemergence, large crabgrass; conditions: 0 to 100 scale (0 no effect, 100 complete control)
How it was run: as §1

[7] = system: giant foxtail (Setaria faberi); experiment: Test A preemergence, giant foxtail; conditions: 0 to 100 scale (0 no effect, 100 complete control)
How it was run: as §1

[8] = system: barnyardgrass (Echinochloa crus-galli); experiment: Test A preemergence, barnyardgrass; conditions: 0 to 100 scale (0 no effect, 100 complete control)
How it was run: as §1

[9] = system: large crabgrass (Digitaria sanguinalis); experiment: Test A preemergence, large crabgrass; conditions: 0 to 100 scale (0 no effect, 100 complete control)
How it was run: as §1

[10] = system: barnyardgrass (Echinochloa crus-galli); experiment: Test B flooded paddy test, barnyardgrass; conditions: Flood
How it was run: as §2

[11] = system: velvetleaf (Abutilon theophrasti); experiment: Test A preemergence, velvetleaf; conditions: 0 to 100 scale (0 no effect, 100 complete control)
How it was run: as §1

[12] = system: ducksalad (Heteranthera limosa); experiment: Test B flooded paddy test, ducksalad; conditions: Flood, scale 0 to 100
How it was run: as §2

[13] = system: giant foxtail (Setaria faberi); experiment: Test A postemergence, giant foxtail; conditions: 0 to 100 scale (0 no effect, 100 complete control)
How it was run: as §1

[14] = system: corn (Zea mays); experiment: Test A postemergence, corn; conditions: 0 to 100 scale (0 no effect, 100 complete control)
How it was run: as §1

[15] = system: corn (Zea mays); experiment: Test A preemergence, corn; conditions: 0 to 100 scale (0 no effect, 100 complete control)
How it was run: as §1

[16] = system: wheat (Triticum aestivum); experiment: Test A postemergence, wheat; conditions: 0 to 100 scale (0 no effect, 100 complete control)
How it was run: as §1

[17] = system: velvetleaf (Abutilon theophrasti); experiment: Test A postemergence, velvetleaf; conditions: 0 to 100 scale (0 no effect, 100 complete control)
How it was run: as §1

[18] = system: pigweed (Amaranthus retroflexus); experiment: Test A preemergence, pigweed; conditions: 0 to 100 scale (0 no effect, 100 complete control)
How it was run: as §1

[19] = system: barnyardgrass (Echinochloa crus-galli); experiment: Test A postemergence, barnyardgrass; conditions: 0 to 100 scale (0 no effect, 100 complete control)
How it was run: as §1

[20] = system: rice (Oryza sativa); experiment: Test B flooded paddy test, rice; conditions: Flood, scale 0 to 100
How it was run: as §2

[21] = 250 g ai/ha, scale 0 to 100 (0 no effect, 100 complete control)

For CC1(C)CC(S(=O)(=O)Cc2c(C(F)(F)F)nc3n(c2=O)CCCO3)=NO1 [Compound 4], the “Plant response rating, Morningglory” value ([1]; 125 g ai/ha) was 0, the “Plant response rating, Morningglory” value ([1]; 500 g ai/ha) was 70 and the “Plant response rating, Sedge, Umbrella” value ([2]; 31 g ai/ha) was 0. For the same compound, the “Plant response rating, Sedge, Umbrella” value ([2]; 62 g ai/ha) was 0, the “Plant response rating, Sedge, Umbrella” value ([2]; 125 g ai/ha) was 0 and the “Plant response rating, Sedge, Umbrella” value ([2]; 250 g ai/ha) was 0. The “Plant response rating, Pigweed” value ([3]; 125 g ai/ha) was 30, the “Plant response rating, Pigweed” value ([3]; 500 g ai/ha) was 60 and the “Plant response rating, Morningglory” value ([4]; 125 g ai/ha) was 0. The “Plant response rating, Morningglory” value ([4]; 500 g ai/ha) was 50, the “Plant response rating, Wheat” value ([5]; 125 g ai/ha) was 0 and the “Plant response rating, Wheat” value ([5]; 500 g ai/ha) was 40. For the same compound, the “Plant response rating, Crabgrass, Large” value ([6]; 125 g ai/ha) was 60, the “Plant response rating, Crabgrass, Large” value ([6]; 500 g ai/ha) was 80 and the “Plant response rating, Foxtail, Giant” value ([7]; 125 g ai/ha) was 90. The “Plant response rating, Foxtail, Giant” value ([7]; 500 g ai/ha) was 100, the “Plant response rating, Barnyardgrass” value ([8]; 125 g ai/ha) was 70 and the “Plant response rating, Barnyardgrass” value ([8]; 500 g ai/ha) was 100. For the same compound, the “Plant response rating, Crabgrass, Large” value ([9]; 125 g ai/ha) was 60, the “Plant response rating, Crabgrass, Large” value ([9]; 500 g ai/ha) was 100 and the “Plant response rating, Barnyardgrass” value ([10]; 31 g ai/ha, scale 0 to 100) was 0. For the same compound, the “Plant response rating, Barnyardgrass” value ([10]; 62 g ai/ha, scale 0 to 100) was 0, the “Plant response rating, Barnyardgrass” value ([10]; 125 g ai/ha, scale 0 to 100) was 0 and the “Plant response rating, Barnyardgrass” value [10, 21] was 0. For the same compound, the “Plant response rating, Velvetleaf” value ([11]; 125 g ai/ha) was 10, the “Plant response rating, Velvetleaf” value ([11]; 500 g ai/ha) was 90 and the “Plant response rating, Ducksalad” value ([12]; 31 g ai/ha) was 0. The “Plant response rating, Ducksalad” value ([12]; 62 g ai/ha) was 0, the “Plant response rating, Ducksalad” value ([12]; 125 g ai/ha) was 0 and the “Plant response rating, Ducksalad” value ([12]; 250 g ai/ha) was 0. For the same compound, the “Plant response rating, Foxtail, Giant” value ([13]; 125 g ai/ha) was 70, the “Plant response rating, Foxtail, Giant” value ([13]; 500 g ai/ha) was 80 and the “Plant response rating, Corn” value ([14]; 125 g ai/ha) was 0. The “Plant response rating, Corn” value ([14]; 500 g ai/ha) was 50, the “Plant response rating, Corn” value ([15]; 125 g ai/ha) was 0 and the “Plant response rating, Corn” value ([15]; 500 g ai/ha) was 50. For the same compound, the “Plant response rating, Wheat” value ([16]; 125 g ai/ha) was 0, the “Plant response rating, Wheat” value ([16]; 500 g ai/ha) was 10 and the “Plant response rating, Velvetleaf” value ([17]; 125 g ai/ha) was 50. The “Plant response rating, Velvetleaf” value ([17]; 500 g ai/ha) was 70, the “Plant response rating, Pigweed” value ([18]; 125 g ai/ha) was 30 and the “Plant response rating, Pigweed” value ([18]; 500 g ai/ha) was 100. For the same compound, the “Plant response rating, Barnyardgrass” value ([19]; 125 g ai/ha) was 70, the “Plant response rating, Barnyardgrass” value ([19]; 500 g ai/ha) was 80 and the “Plant response rating, Rice” value ([20]; 31 g ai/ha) was 0. The “Plant response rating, Rice” value ([20]; 62 g ai/ha) was 0, the “Plant response rating, Rice” value ([20]; 125 g ai/ha) was 0 and the “Plant response rating, Rice” value ([20]; 250 g ai/ha) was 0.

With CCn1c(=O)c(CS(=O)(=O)C2=NOC(C)(C)C2)nc2cccnc21 [Compound 57] the “Plant response rating, Morningglory” value ([1]; 125 g ai/ha) was 0, the “Plant response rating, Morningglory” value ([1]; 500 g ai/ha) was 0 and the “Plant response rating, Sedge, Umbrella” value ([2]; 31 g ai/ha) was 0. For the same compound, the “Plant response rating, Sedge, Umbrella” value ([2]; 62 g ai/ha) was 0, the “Plant response rating, Sedge, Umbrella” value ([2]; 125 g ai/ha) was 0 and the “Plant response rating, Sedge, Umbrella” value ([2]; 250 g ai/ha) was 0. The “Plant response rating, Pigweed” value ([3]; 125 g ai/ha) was 0, the “Plant response rating, Pigweed” value ([3]; 500 g ai/ha) was 0 and the “Plant response rating, Morningglory” value ([4]; 125 g ai/ha) was 0. The “Plant response rating, Morningglory” value ([4]; 500 g ai/ha) was 0, the “Plant response rating, Wheat” value ([5]; 125 g ai/ha) was 0 and the “Plant response rating, Wheat” value ([5]; 500 g ai/ha) was 0. The “Plant response rating, Crabgrass, Large” value ([6]; 125 g ai/ha) was 10, the “Plant response rating, Crabgrass, Large” value ([6]; 500 g ai/ha) was 40 and the “Plant response rating, Foxtail, Giant” value ([7]; 125 g ai/ha) was 0. The “Plant response rating, Foxtail, Giant” value ([7]; 500 g ai/ha) was 40, the “Plant response rating, Barnyardgrass” value ([8]; 125 g ai/ha) was 0 and the “Plant response rating, Barnyardgrass” value ([8]; 500 g ai/ha) was 40. The “Plant response rating, Crabgrass, Large” value ([9]; 125 g ai/ha) was 40, the “Plant response rating, Crabgrass, Large” value ([9]; 500 g ai/ha) was 50 and the “Plant response rating, Barnyardgrass” value ([10]; 31 g ai/ha, scale 0 to 100) was 0. The “Plant response rating, Barnyardgrass” value ([10]; 62 g ai/ha, scale 0 to 100) was 0, the “Plant response rating, Barnyardgrass” value ([10]; 125 g ai/ha, scale 0 to 100) was 0 and the “Plant response rating, Barnyardgrass” value [10, 21] was 0. For the same compound, the “Plant response rating, Velvetleaf” value ([11]; 125 g ai/ha) was 0, the “Plant response rating, Velvetleaf” value ([11]; 500 g ai/ha) was 0 and the “Plant response rating, Ducksalad” value ([12]; 31 g ai/ha) was 0. For the same compound, the “Plant response rating, Ducksalad” value ([12]; 62 g ai/ha) was 0, the “Plant response rating, Ducksalad” value ([12]; 125 g ai/ha) was 0 and the “Plant response rating, Ducksalad” value ([12]; 250 g ai/ha) was 0. The “Plant response rating, Foxtail, Giant” value ([13]; 125 g ai/ha) was 0, the “Plant response rating, Foxtail, Giant” value ([13]; 500 g ai/ha) was 30 and the “Plant response rating, Corn” value ([14]; 125 g ai/ha) was 0. For the same compound, the “Plant response rating, Corn” value ([14]; 500 g ai/ha) was 0, the “Plant response rating, Corn” value ([15]; 125 g ai/ha) was 0 and the “Plant response rating, Corn” value ([15]; 500 g ai/ha) was 0. The “Plant response rating, Wheat” value ([16]; 125 g ai/ha) was 0, the “Plant response rating, Wheat” value ([16]; 500 g ai/ha) was 0 and the “Plant response rating, Velvetleaf” value ([17]; 125 g ai/ha) was 0. For the same compound, the “Plant response rating, Velvetleaf” value ([17]; 500 g ai/ha) was 0, the “Plant response rating, Pigweed” value ([18]; 125 g ai/ha) was 0 and the “Plant response rating, Pigweed” value ([18]; 500 g ai/ha) was 0. For the same compound, the “Plant response rating, Barnyardgrass” value ([19]; 125 g ai/ha) was 0, the “Plant response rating, Barnyardgrass” value ([19]; 500 g ai/ha) was 30 and the “Plant response rating, Rice” value ([20]; 31 g ai/ha) was 0. For the same compound, the “Plant response rating, Rice” value ([20]; 62 g ai/ha) was 0, the “Plant response rating, Rice” value ([20]; 125 g ai/ha) was 0 and the “Plant response rating, Rice” value ([20]; 250 g ai/ha) was 0.

Source: US20100099561A1, “HETEROBICYCLIC ALKYLTHIO-BRIDGED ISOXAZOLINES” (E.I. DU PONT DE NEMOURS AND COMPANY, priority 2008, published 2010)
